Experimental data reported in patent US20210002725A1, “METHODS FOR THE DIAGNOSIS OF METABOLIC DISORDERS USING EPIMETABOLIC SHIFTERS, MULTIDIMENSIONAL INTRACELLULAR MOLECULES, OR ENVIRONMENTAL INFLUENCES” (Berg LLC, priority 2009, published 2021).
Read-outs that look alike come from different tables or passages of the source.

Tests used:
[1] = system: HepG2 (liver cancer) cells; assay: Real-time PCR Apoptosis Array; format: cell-based
[2] = system: HepG2 (liver cancer) cells; assay: Real-time PCR Diabetes Array; format: cell-based; conditions: for genes regulated in the Diabetes Arrays: 100 μM
Description: The treatment was initiated on 1×10^5 cells per well, following the procedure utilized in the PaCa2 cells (above, Examples 9-11). However, the total amount of RNA that was extracted from these samples was lower than expected. Reverse transcription is normally done using 1 μg of total RNA (determined by measurement at 260 nm).

SK-MEL-28 mitochondria = assay: LC-MS/MS quantification of Q10 and Q10H2 in mitochondrial enriched samples; format: cell-based; conditions: for Peak Area Q10: 20% injection
Description: Ten μl of each sample was injected.

SCC cells = assay: Real-time PCR Apoptosis Array; format: cell-based; conditions: 100 μM Q10
Source text: The control cells were untreated cells.
RNA was quantified by measuring Optical Density at 260 nm.

[3] = system: Pyruvate Kinase M2 (PKM2); assay: Western blot of Pyruvate Kinase M2 levels in cells treated with Coenzyme Q10; format: cell-based, human
Description: The samples were processed and run on a 4-12% Bis-Tris Novex NuPAGE gel as described above. The gels were run, transferred and stained essentially as described above.
The lactate dehydrogenase blots were stripped by incubating for 30 minutes with methanol, followed by two 10 minute washes with TBS-T, then 30 minutes of incubation with Stripping buffer at 50 deg C., and followed by two washes with 100 ml or more of TBS-T for 30′ each. The 2 blots were scanned in laser scanner to check for complete stripping. The blots were activated with methanol for 5 seconds, washed with water for 5 minutes, and TBST for 15 minutes. The blots were blocked for 1 hour with 5% blocking reagent in TBS-T at room temperature and then washed 3 times with TBS-T (1×-15′; 2×5′ each) and probed with the rabbit polyclonal antibody for Pyruvate Kinase M2 in 5% BSA (NOVUS BIOLOGICALS catalog #H00005315-D01P) at 1:500 dilution overnight at 4 deg C with shaking. After the overnight incubation with primary antibody for Pyruvate Kinase M2, the membranes were washed 3 times with TBS-T (1×-15′; 2×5′ each) and probed with the secondary antibody (antirabbit; 1:10,000 dilution) for 1 h on the orbital tilting shaker at room temperature. After 1 h of incubation with secondary antibodies, the blots were washed 3 times with TBS-T (1×-15′; 2×5′ each) and then incubated with ECF reagent for 5 minutes and then each blot scanned with 5100 Fuji Laser scanner at 25 uM resolution, 16 bit, green laser, at 400V and at 500 V.
The HASMC samples were processed and the gels were run, transferred, stained and scanned essentially as described above.
The above blots were stripped by incubating for 30 minutes with methanol, followed by two 10 minute washes with TBS-T, then 30 minutes of incubation with Stripping buffer at 50 deg C., and followed by two washes with 100 ml or more of TBS-T for 30′ each. The blots were scanned in laser scanner to check for complete stripping. The blots were activated with methanol for 5 seconds, washed with water for 5 minutes, and TBST for 15 minutes. The blots were blocked for 1 hour with 5% blocking reagent in TBS-T at room temperature and then washed 3 times with TBS-T (1×-15′; 2×5′ each) and probed with the primary antibody for PKM2, SDHB or SDHC in 5% BSA in TBS-T by incubation overnight at 4 deg C. with gentle shaking. The primary antibody for SDHC (ABNOVA H00006391-M02; antimouse) was at 1:500 dilution. The primary antibody for SDHB was from Abcam ab4714-200; antimouse; at 1:1000 dilution. The primary antibody for Pyruvate Kinase M2 (PKM2) was from Novus Biologicals H00005315-DOIP; antirabbit; at 1:500 dilution. After incubation with primary antibodies, the membranes were washed 3 times with TBS-T (1×-15′; 2×5′ each) and probed with the secondary antibody (SDHB & C antimouse; and PKM2 antirabbit; 1:10,000 dilution) for 1 hon the orbital tilting shaker at room temperature. After 1 h of incubation, the blots were washed 3 times with TBS-T (1×-15′; 2×5′ each) and incubated with ECF reagent for 5 minutes and then each blot scanned with 5100 Fuji Laser scanner at 25 uM resolution, 16 bit, green laser, at 400V and at 500 V.

[4] = cited from earlier work
[5] = system: HepG2 (liver cancer) cells; assay: Real-time PCR Angiogenesis Array; format: cell-based
Description: The treatment was initiated on 1×10^5 cells per well, following the procedure utilized in the PaCa2 cells (above Examples 9-11). However, the total amount of RNA that was extracted from these samples was lower than expected. Reverse transcription is normally done using 1 μg of total RNA (determined by measurement at 260 nm).

COC1=C(OC)C(=O)C(C/C=C(\C)CC/C=C(\C)CC/C=C(\C)CC/C=C(\C)CC/C=C(\C)CC/C=C(\C)CC/C=C(\C)CC/C=C(\C)CC/C=C(\C)CCC=C(C)C)=C(C)C1=O [Q10, Coenzyme Q10]
genes regulated in the Apoptosis Arrays ([1]; 100 μM): BAG1 and CASP9 and TNFRSF1A
BAG1 downregulation over control ([1]; 100 uM Q10, 16 hours): approximately 6 fold
CASP9 upregulation over control ([1]; 100 uM Q10, 16 hours): approximately 61 fold
TNFRSF1A downregulation over control ([1]; 100 uM Q10, 16 hours): ~4 fold
BAG1 upregulation over control ([1]; 100 uM Q10, 48 hours): ~1 fold
CASP9 upregulation over control ([1]; 100 uM Q10, 48 hours): approximately 55 fold
TNFRSF1A upregulation over control ([1]; 100 uM Q10, 48 hours): ~1 fold
PPARGC1A downregulation ([2]; 100 μM Q10, 16 hours): approximately 20 fold
PRKAA1 downregulation ([2]; 100 μM Q10, 16 hours): ~6 fold
SNAP25 downregulation ([2]; 100 μM Q10, 16 hours): ~5 fold
PPARGC1A regulation ([2]; 100 μM Q10, 48 hours): normalized or were slightly upregulated
PRKAA1 regulation ([2]; 100 μM Q10, 48 hours): normalized or were slightly upregulated
SNAP25 downregulation ([2]; 100 μM Q10, 48 hours): approximately 2 fold
genes regulated in the Diabetes Arrays ([2]; PPARGC1A gene): PPARGC1A
genes regulated in the Diabetes Arrays ([2]; PRKAA1 gene): PRKAA1
genes regulated in the Diabetes Arrays ([2]; SNAP25 gene): SNAP25
increase in mitochondrial Q10 levels (SK-MEL-28 mitochondria; 100 μM Q10, 19 hours, vs untreated): ~3 fold
increase in mitochondrial Q10H2 levels (SK-MEL-28 mitochondria; 100 μM Q10, 48 hour sample, near detection limit): 3 fold
Peak Area Q10 (SK-MEL-28 mitochondria; 100 μM Q10 in the media, 6 hr): 25427
Peak Area Q10 (SK-MEL-28 mitochondria; 100 μM Q10 in the media, 19 hr): 59164
Q10H2 (reduced form) in mitochondrial enriched sample (SK-MEL-28 mitochondria; 100 μM Q10 in the media, 48 hr): 0.28 ng/Sample
Peak Area Q10 (SK-MEL-28 mitochondria; 100 μM Q10 in the media, 48 hr): 164496
form of Q10 in mitochondria (oxidized vs reduced) (SK-MEL-28 mitochondria; exogenous addition of Q10 to the media): maintained in the supplied oxidized form
Regulation (mRNA) at 6 hours (SCC cells): Down regulated at 6
Regulation (mRNA) at 24 hours (SCC cells; gene BAX): Up regulated at 24 hours.
Regulation (mRNA) at 24 hours (SCC cells; gene BCL2L1): hours and then up
Regulation (mRNA) at 24 hours (SCC cells; gene BNIP3): Down regulated at 24
PKM2 Upper Band Normalized Intensity ([3]; HASMC, 5 g, 48 h, 50 μM): 811
PKM2 Upper Band Normalized Intensity ([3]; HASMC, 5 g, 48 h, 100 μM): 611
PKM2 Upper Band Normalized Intensity ([3]; HASMC, 22 G, 24 h, 50 μM): 477
PKM2 Upper Band Normalized Intensity ([3]; HASMC, 22 G, 24 h, 100 μM): 701
PKM2 Upper Band Normalized Intensity ([3]; HASMC, 22 G, 48 h, 50 μM): 595
PKM2 Upper Band Normalized Intensity ([3]; HASMC, 22 G, 48 h, 100 μM): 496
PKM2 Upper Band Normalized Volume ([3]; HepG2, 5 g, 24 h, 50 μM): 29269
PKM2 Upper Band Normalized Volume ([3]; HepG2, 5 g, 24 h, 100 μM): 18307
PKM2 Upper Band Normalized Intensity ([3]; HepG2, 5 g, 48 h, 50 μM): 303
PKM2 Upper Band Normalized Intensity ([3]; HepG2, 5 g, 48 h, 100 μM): 354
PKM2 Upper Band Normalized Volume ([3]; HepG2, 22 G, 24 h, 50 μM): 22294
PKM2 Upper Band Normalized Volume ([3]; HepG2, 22 G, 24 h, 100 μM): 19560
PKM2 Upper Band Normalized Intensity ([3]; HepG2, 22 G, 48 h, 50 μM): 562
PKM2 Upper Band Normalized Intensity ([3]; HepG2, 22 G, 48 h, 100 μM): 601
CoQ10 in the reduced form ([4]; blood (plasma), Bhagavan): ~96%
CoQ10 in the reduced form ([4]; heart): about 61%
molecule found in the reduced form (Q10H2) ([4]; human plasma, Ruiz-Jimenez 2007): 90%
CoQ10 in the reduced form ([4]; intestine): ~95%
CoQ10 in the reduced form ([4]; kidney): ~75%
CoQ10 in the reduced form ([4]; liver): ~95%
CoQ10 in the reduced form ([4]; muscle): ~65%
ANGPTL3 upregulation over control ([5]; 100 μM Q10, 16 hours): approximately 5.5 fold
ANGPTL4 upregulation over control ([5]; 100 μM Q10, 16 hours): ~3 fold
CXCL1 upregulation over control ([5]; 100 μM Q10, 16 hours): ~3 fold
CXCL3 upregulation over control ([5]; 100 μM Q10, 16 hours): ~3.2 fold
CXCL5 upregulation over control ([5]; 100 μM Q10, 16 hours): ~3 fold
ENG upregulation over control ([5]; 100 μM Q10, 16 hours): ~3 fold
ID3 downregulation over control ([5]; 100 μM Q10, 16 hours): approximately 5 fold
MMP2 upregulation over control ([5]; 100 μM Q10, 16 hours): approximately 1 fold
TIMP3 upregulation over control ([5]; 100 μM Q10, 16 hours): ~6.5 fold
ANGPTL3 upregulation over control ([5]; 100 μM Q10, 48 hours): approximately 3.5 fold
ANGPTL4 downregulation over control ([5]; 100 μM Q10, 48 hours): approximately 1 fold
CXCL1 upregulation over control ([5]; 100 μM Q10, 48 hours): ~1.5 fold
CXCL3 upregulation over control ([5]; 100 μM Q10, 48 hours): ~3.175 fold
CXCL5 downregulation over control ([5]; 100 μM Q10, 48 hours): approximately 1 fold
ENG upregulation over control ([5]; 100 μM Q10, 48 hours): ~2 fold
ID3 downregulation over control ([5]; 100 μM Q10, 48 hours): ~2 fold
MMP2 downregulation over control ([5]; 100 μM Q10, 48 hours): ~18 fold
TIMP3 upregulation over control ([5]; 100 μM Q10, 48 hours): ~3 fold
